Measured values: patent US10183947B2, “Pyrazole derivatives useful as 5-lipoxygenase activating protein (FLAP) inhibitors” (ASTRAZENECA AB, priority 2015, dated 2019)
Read-outs that look alike come from different tables or passages of the source.

Columns and labels:
[1] = test system: LTB4 production in fresh human whole blood; assay: FLAP Whole Blood Assay (Test B), inhibition of LTB4 production; type: cell-based; conditions: then calcium ionophore A23187, LTB4 by EIA
Protocol: FLAP Whole Blood Assay (Test B)
Compounds were tested for the inhibition of LTB4 production in fresh human whole blood obtained by venapuncture using heparin to prevent clotting. 1.5 μL compounds or DMSO carrier were dispensed into the wells of a 96-well deep-well plate in 3-fold dilution series. 500 μL hepamised whole blood was then added followed by incubation at 37° C. for 30 min (method A) or 4 h (method B). 100 μL blood was subsequently transferred in triplicate to pre-dispensed 0.5 μL 2 mM calcium ionophore (calcimycin; A23187) in a second 96-well plate. Following incubation at 37° C. for 20 min, the assays were stopped by adding 10 μL of stop solution (100 mM EGTA, pH 7.4) and the plate was transferred to ice. The plate was centrifuged at 3000 rpm at 4° C. for 10 min and […] was transferred to a fresh 96 well plate containing 90 μL pre-dispensed EIA assay buffer (0.1 M phosphate buffer+0.1% BSA). LTB4 was then measured using reagents from a commercial EIA (Cayman Chemicals). LTB4 production was defined as the LTB4 level in the presence of a given concentration of test compound minus the LTB4 level in the presence of 50 nM 5-[[4-[(2S,4R)-4-hydroxy-2-methyl-tetrahydropyran-4-yl]-2-thienyl]sulfanyl]-1-methyl-indolin-2-one. (Preparation of 5-[[4-[(2S,4R)-4-hydroxy-2-methyl-tetrahydropyran-4-yl]-2-thienyl]sulfanyl]-1-methyl-indolin-2-one was described in Org. Process Res. Dev., 2005, 9, 555-569 or EP623614 B1). Inhibition of LTB4 production was defined as the LTB4 level in the presence of a given concentration of test compound expressed as a % of the LTB4 level in the presence of DMSO. IC50 values were determined by plotting % inhibition versus log compound concentration and using a one site dose response model.

[2] = molecular target: FLAP (human ALOX5AP expressed in COS-7 cell membranes) (Homo sapiens (Human), UniProt P20292); assay: FLAP Binding Assay (Test A), competition binding with 3H-MK591 as tracer; conditions: competition with 3H-MK591 (2 nM), membranes from COS-7 cells expressing human ALOX5AP, 60 min at rt
Protocol: FLAP Binding Assay (Test A) Compounds were tested in a competition binding assay using ^3H-MK591 as tracer. […] Med. Chem. […] A 100,000×g pellet from COS-7 cells stably transfected with a plasmid expressing human ALOX5AP was the source of FLAP. […] Following filtration, filter plates were dried 12 h at RT (or 50° C. for 1 hour). 50 μL scintillant was then added, the filterplates were sealed and radioactivity was measured in a microbeta counter. Specific binding was defined as total binding minus non-specific binding. Total binding was defined as ^3H-MK591 bound to membranes in the absence of competitor, non-specific binding was defined as ^3H-MK591 in the presence of 0.1 mM MK-591. IC50 values were determined by plotting % inhibition versus log compound concentration and using a one site dose response model.

[3] = 0.5 h, method A: compound incubated with human whole blood at 37° C. for 30 min, read-out: IC50 nM (method A)
[4] = method B: compound incubated with human whole blood at 37° C. for 4 h, read-out: IC50 nM (method B)

Chain of FLAP (human ALOX5AP expressed in COS-7 cell membranes) (P20292 whole entry): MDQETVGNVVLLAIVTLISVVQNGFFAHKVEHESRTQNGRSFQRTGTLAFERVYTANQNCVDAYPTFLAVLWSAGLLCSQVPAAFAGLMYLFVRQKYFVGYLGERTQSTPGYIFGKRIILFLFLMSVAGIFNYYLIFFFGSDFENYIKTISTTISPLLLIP

Compound	IC50 [1, 3] [nM]	IC50 [2] [nM]	IC50 [1, 4] [nM]
CNC(=O)c1c(NC(=O)[C@@H]2CCCC[C@H]2C(=O)c2ccc(-c3cc(C)[nH]n3)cc2)cnn1C [Example 21, N,1-Dimethyl-4-[({(1R,2R)-2-[4-(5-methyl-1H-pyrazol-3-yl)benzoyl]-cyclohexyl}carbonyl)amino]-1H-pyrazole-5-carboxamide]	360	230	–
Cn1ncc(NC(=O)[C@@H]2CCCC[C@H]2C(=O)c2ccc(-c3ccn[nH]3)cc2)c1S(C)(=O)=O [Example 8, (1R,2R)—N-[1-Methyl-5-(methylsulfonyl)-1H-pyrazol-4-yl]-2-[4-(1H-pyrazol-5-yl)benzoyl]cyclohexanecarboxamide]	–	45	35
O=C(Nc1nc(C2CC2)ns1)C1CCCCC1C(=O)c1ccc(-c2ccn[nH]2)cc1 (racemic) [Example 47, (1R,2R and 1S,2S)—N-(3-Cyclopropyl-1,2,4-thiadiazol-5-yl)-2-[4-(1H-pyrazol-5-yl)benzoyl]cyclohexanecarboxamide]	260	53	–
Cc1nn2c(c1NC(=O)[C@@H]1CCCC[C@H]1C(=O)c1ccc(-c3cc[nH]n3)cc1)C(=O)NCC2 [Example 29, (1R,2R)—N-(2-Methyl-4-oxo-4,5,6,7-tetrahydropyrazolo[1,5-a]pyrazin-3-yl)-2-[4-(1H-pyrazol-5-yl)benzoyl]cyclohexanecarboxamide]	–	4.8	330
Cn1cc(NC(=O)C2CCCCC2C(=O)c2ccc(-c3cc[nH]n3)cc2)c(C#N)n1 (single isomer, unassigned) [Example 12, (1R,2R or 1S,2S)—N-(3-Cyano-1-methyl-1H-pyrazol-4-yl)-2-[4-(1H-pyrazol-3-yl)benzoyl]cyclohexanecarboxamide]	–	41	100
Cc1cc(-c2ccc(C(=O)[C@@H]3CCCC[C@H]3C(=O)Nc3cnn4c3C(=O)N(C)CC4)cc2)n[nH]1 [Example 16, (1R,2R)—N-(5-Methyl-4-oxo-4,5,6,7-tetrahydropyrazolo[1,5-a]pyrazin-3-yl)-2-[4-(5-methyl-1H-pyrazol-3-yl)benzoyl]cyclohexanecarboxamide]	–	22	41
Cc1nsc(NC(=O)C2CCCCC2C(=O)c2ccc(-c3ccn[nH]3)cc2)c1C#N (racemic) [Example 49, (1R,2R and 1S,1S)—N-(4-Cyano-3-methyl-1,2-thiazol-5-yl)-2-[4-(1H-pyrazol-5-yl)benzoyl]cyclohexanecarboxamide]	640	44	–
Cc1cc(-c2ccc(C(=O)C3CCCCC3C(=O)Nc3cnn4c3C(=O)NCC4)c(F)c2)[nH]n1 (single isomer, unassigned) [Example 39, (1R,2R or 1S,2S)-2-[2-Fluoro-4-(3-methyl-1H-pyrazol-5-yl)benzoyl]-N-(4-oxo-4,5,6,7-tetrahydropyrazolo[1,5-a]pyrazin-3-yl)cyclohexanecarboxamide]	–	9	34
Cn1cc(NC(=O)[C@@H]2CCCC[C@H]2C(=O)c2ccc(-c3ccn[nH]3)cc2)c(S(N)(=O)=O)n1 [Example 26, (1R,2R)—N-(1-Methyl-3-sulfamoyl-1H-pyrazol-4-yl)-2-[4-(1H-pyrazol-5-yl)benzoyl]cyclohexanecarboxamide]	–	290	250
CN(C)S(=O)(=O)c1c(NC(=O)[C@@H]2CCCC[C@H]2C(=O)c2ccc(-c3ccn[nH]3)cc2)cnn1C [Example 27, (1R,2R)—N-[5-(Dimethylsulfamoyl)-1-methyl-1H-pyrazol-4-yl]-2-[4-(1H-pyrazol-5-yl)benzoyl]cyclohexanecarboxamide]	–	65	55
O=C1NCCn2ncc(NC(=O)[C@@H]3CCCC[C@H]3C(=O)c3ccc(-c4ccn[nH]4)cc3)c21 [Example 24, (1R,2R)—N-(4-Oxo-4,5,6,7-tetrahydropyrazolo[1,5-a]pyrazin-3-yl)-2-[4-(1H-pyrazol-5-yl)benzoyl]cyclohexanecarboxamide]	–	8.1	18
NC(=O)c1[nH]ncc1NC(=O)[C@@H]1CCCC[C@H]1C(=O)c1ccc(-c2ccn[nH]2)cc1 [Example 23, 4-[({(1R,2R)-2-[4-(1H-Pyrazol-5-yl)benzoyl]cyclohexyl}carbonyl)amino]-1H-pyrazole-5-carboxamide]	–	35	130
Cc1cc(-c2ccc(C(=O)[C@@H]3CCCC[C@H]3C(=O)Nc3cnn4c3C(=O)NCC4)cc2)[nH]n1 [Example 7, (1R,2R)-2-[4-(3-Methyl-1H-pyrazol-5-yl)benzoyl]-N-(4-oxo-4,5,6,7-tetrahydropyrazolo[1,5-a]pyrazin-3-yl)cyclohexanecarboxamide]	–	6.3	40
Cc1cc(-c2ccc(C(=O)[C@@H]3CCCC[C@H]3C(=O)Nc3cnn4c3OCC4)cc2)[nH]n1 [Example 11, (1R,2R)—N-(2,3-Dihydropyrazolo[5,1-b][1,3]oxazol-7-yl)-2-[4-(3-methyl-1H-pyrazol-5-yl)benzoyl]cyclohexanecarboxamide]	–	82	140
Cc1cc(-c2ccc(C(=O)C3CCCCC3C(=O)Nc3cnn(C)c3C(N)=O)c(Cl)c2)[nH]n1 (racemic) [Example 32, 4-[({(1R,2R and 1S,2S)-2-[2-Chloro-4-(3-methyl-1H-pyrazol-5-yl)benzoyl]cyclohexyl}carbonyl)amino]-1-methyl-1H-pyrazole-5-carboxamide]	–	170	915
Cn1ncc(NC(=O)[C@@H]2CCCC[C@H]2C(=O)c2ccc(-c3cc[nH]n3)cc2)c1C(N)=O [Example 2, 1-Methyl-4-[({(1R,2R)-2-[4-(1H-pyrazol-3-yl)benzoyl]cyclohexyl}-carbonyl)amino]-1H-pyrazole-5-carboxamide]	–	34	60
O=C(Nc1cn[nH]c1C(F)F)[C@@H]1CCCC[C@H]1C(=O)c1ccc(-c2cc[nH]n2)cc1 [Example 30, (1R,2R)—N-[5-(Difluoromethyl)-1H-pyrazol-4-yl]-2-[4-(1H-pyrazol-3-yl)benzoyl]cyclohexanecarboxamide]	–	12	50
Cn1ncc(NC(=O)C2CCCCC2C(=O)c2ccc(-c3ccn[nH]3)cc2Cl)c1C(N)=O (racemic) [Example 31, 4-[({(1R,2R and 1S,2S)-2-[2-Chloro-4-(1H-pyrazol-5-yl)benzoyl]-cyclohexyl}carbonyl)amino]-1-methyl-1H-pyrazole-5-carboxamide]	–	190	390
Cc1cc(-c2ccc(C(=O)[C@@H]3CCCC[C@H]3C(=O)Nc3nnco3)cc2)[nH]n1 [Example 43, (1R,2R)-2-[4-(3-Methyl-1H-pyrazol-5-yl)benzoyl]-N-(1,3,4-oxadiazol-2-yl)cyclohexanecarboxamide]	–	140	904
Cc1cc(-c2ccc(C(=O)[C@@H]3CCCC[C@H]3C(=O)Nc3cn(C)nc3S(N)(=O)=O)cc2)[nH]n1 [Example 10, (1R,2R)-2-[4-(3-Methyl-1H-pyrazol-5-yl)benzoyl]-N-(1-methyl-3-sulfamoyl-1H-pyrazol-4-yl)cyclohexanecarboxamide]	–	270	340
CNS(=O)(=O)c1c(NC(=O)[C@@H]2CCCC[C@H]2C(=O)c2ccc(-c3cc(C)n[nH]3)cc2)cnn1C [Example 25, (1R,2R)—N-[1-Methyl-5-(methylsulfamoyl)-1H-pyrazol-4-yl]-2-[4-(3-methyl-1H-pyrazol-5-yl)benzoyl]cyclohexanecarboxamide]	–	25	210
